Experimental findings from the RepoRT retention time repository are described below.

Structures are written as SMILES.

The data set in a line: Agilent ZORBAX 300 SB-C18, 150 × 1 mm, 3.5 µm; A: water + 0.01% heptafluorobutyric acid; B: acetonitrile + 0.01% heptafluorobutyric acid; gradient (min/%B) 0/0 100/90. As to conditions: stereoisomer not certain.
As for `S=C1N=C2CCCCC2C2(CCCCC2)N1` (stereo unspecified), the LC retention time was 11.6 min.

As for `NCC(O)CO` (stereo unspecified), the LC retention time came out at 2.77 min.

As for `Cc1c(C(=O)N(C)c2ccccc2)oc2ccccc12`, the LC retention time came out at 15.3 min.

As to `COc1ccc(OC)c2c(C)cc(C)nc12`, the LC retention time is 8.94 min.

In the case of `Cc1ccc(-c2nn[nH]n2)n1C`, the LC retention time is 9.09 min.

On to `Cc1c(N=Cc2ccncc2)c(=O)n(-c2ccccc2)n1C`, for which the LC retention time came out at 8.92 min.

Take `CN1CCC(=O)C2CCCCC21` (stereo unspecified): the LC retention time worked out at 7.15 min.

Regarding `c1ccc(-n2nnnc2-n2ccnc2)cc1`, the LC retention time is 9.59 min.

`O=c1c2ccccc2ncn1Cc1ccncc1`: the LC retention time came out at 8.03 min.

`O=C(NN=Cc1cc2ccccc2[nH]1)c1ccccc1`: the LC retention time worked out at 10.9 min.

`CC(C)(C)C(=N)C(C)(C)C`: the LC retention time was determined as 8.06 min.

On to `COc1cc(OC)c2cc[nH]c2c1`, for which the LC retention time is 11.1 min.

As to `CC1=NC(=O)NC(c2ccccc2)C1C(=O)OC(C)C(C)(C)C` (stereo unspecified), the LC retention time was 13.9 min.

Turning to `CCCCCCC(N)=O`, the LC retention time worked out at 9.68 min.

`Cc1cnc[nH]1`: the LC retention time turned out to be 5.66 min.

As for `Cc1ccc2[nH]c(=O)c(C=NC(CO)(CO)CO)c(O)c2c1`, the LC retention time was found to be 7.75 min.

Take `C1CCCNCC1`: the LC retention time came to 6.61 min.

Take `Cc1cccc(NC(N)=S)n1`: the LC retention time is 8.81 min.

Turning to `CC(Cc1ccccc1)N(C)Cc1ccccc1` (stereo unspecified), the LC retention time was found to be 10.8 min.

Turning to `CC1=NCCC1`, the LC retention time stood at 4.35 min.

For `c1ccc2c3c([nH]c2c1)CCCCC3`, the LC retention time is 16.6 min.

Regarding `C=CCNCC=C`, the LC retention time came to 7.07 min.

Take `Cc1ccc2ccc3ccc(C)nc3c2n1`: the LC retention time turned out to be 8.67 min.

Regarding `CC(C)CNC(=O)C(=O)Nc1ccc(N(C)C)cc1`, the LC retention time came to 9.98 min.

Turning to `O=C(CNC(=O)c1ccco1)NN=Cc1ccco1`, the LC retention time turned out to be 8.12 min.

Take `CC1CCCCN1C(=O)c1cncc(C(=O)N2CCCCC2C)c1` (stereo unspecified): the LC retention time turned out to be 11.3 min.

As for `C[N+]1(CC=C2COCO2)CCCCC1`, the LC retention time amounted to 7.48 min.

With `NC(CO)c1ccccc1` (stereo unspecified), the LC retention time is 7.02 min.

`CC(N)(CO)CO`: the LC retention time turned out to be 3.29 min.

In the case of `Cc1ccc(-n2nc(-c3cn(C)nc3C)cc2-c2cn(C)nc2C)cc1`, the LC retention time came out at 12 min.

For `O=C1CCC(=O)N1c1ccc(S(=O)(=O)O)cc1`, the LC retention time is 1.56 min.

Consider `CC(c1ccccc1)N1CNc2c(c(=O)[nH]c(=O)n2Cc2ccccc2)C1` (stereo unspecified), for which the LC retention time came out at 9.33 min.

With `COC(=O)c1ccc(Cn2c(=O)n(C)c(=O)c3ccccc32)cc1`, the LC retention time is 13.1 min.

Take `Oc1ccc2c(c1)C13CCCCC1(O)C(C2O)N(CC1CCC1)CC3` (stereo unspecified): the LC retention time was 8.68 min.

For `c1cncc(CNCc2cccnc2)c1`, the LC retention time was found to be 7.11 min.

Turning to `Cc1cccc(C)c1NC(=S)NCC(C)NC(=S)Nc1c(C)cccc1C` (stereo unspecified), the LC retention time was 13.9 min.

Turning to `Cc1[nH]c2ccccc2c1C=NN=Cc1c(C)[nH]c2ccccc12`, the LC retention time turned out to be 12 min.

For `CC(C)CC(C)N` (stereo unspecified), the LC retention time was determined as 7.77 min.

On to `Nc1ccc(Cc2ccncc2)cc1`, for which the LC retention time came to 8.71 min.

For `COc1ccc(CN2CCC(N)CC2)cc1OC`, the LC retention time was 7.7 min.

In the case of `CN(C)c1ccc(C=NNC(=O)C(c2ccccc2)c2ccccc2)cc1`, the LC retention time amounted to 15.4 min.

Take `CC(=O)c1cc2ccccc2oc1=O`: the LC retention time is 10.8 min.

In the case of `O=C(Oc1cccc2cccnc12)c1ccccc1`, the LC retention time amounted to 13.8 min.

`c1cc2c(cc1NC1=NCCCCC1)OCCO2`: the LC retention time was 9.12 min.

Regarding `c1ccc(Cn2ccc3ccccc32)cc1`, the LC retention time amounted to 16.8 min.

For `CSC1=NC(C)(C)Cc2c(C)cccc21`, the LC retention time was found to be 9.67 min.
